In patent US20250144067A1, “PERSONALIZED STARVATION THERAPY FOR CANCER” (Faeth Therapeutics, Inc., priority 2021, published 2025):
Where a name gives a salt, the structure may show the parent alone. Read-outs that look alike come from different tables or passages of the source.

Key:
[1] = tested on: NCI-H292 lung cancer cells; assay: FDA drug screening, complete media vs cholesterol-free media without statin (TABLE 1); type: cell-based, human
[2] = tested on: NCI-H292 lung cancer cells; assay: FDA drug screening, complete media vs cholesterol-free media with simvastatin (TABLE 2); type: cell-based, human
[3] = NCI-H292 cells, cholesterol-free media without statin
[4] = complete vs cholesterol-free media, greater than 0 enhanced anti-cancer activity, about 0 neutral, below 0 antagonists
[5] = NCI-H292 cells, cholesterol-free media with simvastatin 0.04 μM, FDA drug library screen (TABLE 2)
[6] = NCI-H292 cells, complete media, FDA drug library screen (TABLE 2)
[7] = complete media minus cholesterol-free media + simvastatin (0.04 μM), >0 enhanced anti-cancer activity, about 0 neutral, <0 antagonist
[8] = NCI-H292 cells, cholesterol-free media with simvastatin 0.04 μM, cell growth value in FDA drug screen
[9] = NCI-H292 cells, complete media, cell growth value in FDA drug screen
[10] = complete media minus cholesterol-free media + simvastatin, >0 enhanced anti-cancer activity, about 0 neutral, <0 antagonist
[11] = Complete minus Cholesterol-free, >0 enhanced anti-cancer activity, about 0 neutral, <0 antagonist
[12] = NCI-H292 cells, cholesterol-free media without statin, FDA drug library screen
[13] = NCI-H292 cells, complete media, FDA drug library screen
[14] = NCI-H292 cells, FDA library drug in cholesterol-free media with simvastatin 0.04 μM
[15] = NCI-H292 cells, FDA library drug in complete media
[16] = complete media vs cholesterol-free media + simvastatin (0.04 μM), >0 enhanced anti-cancer activity, about 0 neutral, <0 antagonist
[17] = complete vs cholesterol-free media, >0 enhanced anti-cancer activity, about 0 neutral, <0 antagonist
[18] = Complete minus Cholesterol-free, greater than 0 enhanced anti-cancer activity, about 0 neutral, below 0 antagonists
[19] = NCI-H292 cells in complete media
[20] = NCI-H292 cells, drug in cholesterol-free media with simvastatin 0.04 μM
[21] = NCI-H292 cells, drug in complete media
[22] = NCI-H292 cells, FDA drug library screen, cholesterol-free media with simvastatin 0.04 μM
[23] = NCI-H292 cells, FDA drug library screen, complete media
[24] = Complete minus Cholesterol-free, greater than 0 enhanced anti-cancer activity, about 0 neutral, below 0 antagonist
[25] = NCI-H292 cells, FDA drug library screen, cholesterol-free media without statin
[26] = NCI-H292 cells in cholesterol-free media without statin

## CNC(=O)c1ccc(N2C(=S)N(c3cnc(C#N)c(C(F)(F)F)c3)C(=O)C23CCC3)cc1F [Apalutamide]
[1]; [3]
  Cholesterol-free: 1.195
[1]; NCI-H292 cells, complete media
  Complete: 0.8274
[1]; [4]
  Difference: −0.37
[2]; [5]
  Cholesterol-free media + simvastatin (0.04 μM): 1.113
[2]; [6]
  Complete Media: 1.082
[2]; [7]
  Difference: −0.03

## CC1CC(OC(=O)c2ccccc2O)CC(C)(C)C1 (centres unmarked) [Homosalate]
[1]; [3]
  Cholesterol-free: 0.9096
[1]; NCI-H292 cells, complete media
  Complete: 0.5831
[1]; [4]
  Difference: −0.33
[2]; [8]
  Cholesterol-free media + simvastatin (0.04 μM): 1.411
[2]; [9]
  Complete Media: 1.442
[2]; [10]
  Difference: 0.03

## COC(=O)C1=C(C)NC(C)=C(C(=O)OCCN(C)Cc2ccccc2)C1c1cccc([N+](=O)[O-])c1 (centres unmarked) [Nicardipine (hydrochloride)]
[1]; [11]
  Difference: −0.01
[1]; [12]
  Cholesterol-free: 0.9198
[1]; [13]
  Complete: 0.9062
[2]; [14]
  Cholesterol-free media + simvastatin (0.04 μM): 1.292
[2]; [15]
  Complete Media: 0.8256
[2]; [16]
  Difference: −0.47

## Cc1ccnc2c1NC(=O)c1cccnc1N2C1CC1 [Nevirapine]
[1]; [12]
  Cholesterol-free: 0.7658
[1]; [13]
  Complete: 1.137
[1]; [17]
  Difference: 0.37
[2]; [14]
  Cholesterol-free media + simvastatin (0.04 μM): 1.384
[2]; [15]
  Complete Media: 0.9254
[2]; [16]
  Difference: −0.46

## Penbutolol (sulfate)
[1]; [18]
  Difference: −0.71
[1]; [19]
  Complete: 1.219
[2]; [20]
  Cholesterol-free media + simvastatin (0.04 μM): 0.9562
[2]; [21]
  Complete Media: 0.7448
[2]; [16]
  Difference: −0.21

## CC(=O)c1ccc(O)c(C(=O)O)c1 [5-Acetylsalicylic acid]
[1]; [12]
  Cholesterol-free: 0.912
[1]; [13]
  Complete: 1.045
[1]; [17]
  Difference: 0.13
[2]; [14]
  Cholesterol-free media + simvastatin (0.04 μM): 1.188
[2]; [15]
  Complete Media: 0.8198
[2]; [16]
  Difference: −0.37

## NC(=O)c1cnccn1 [Pyrazinamide]
[1]; [11]
  Difference: 0.04
[1]; [12]
  Cholesterol-free: 0.9745
[1]; [13]
  Complete: 1.011
[2]; [22]
  Cholesterol-free media + simvastatin (0.04 μM): 0.9396
[2]; [23]
  Complete Media: 0.8009
[2]; [16]
  Difference: −0.14

## CC(N)CCCC(C)(C)O (centres unmarked) [Heptaminol (hydrochloride)]
[1]; [11]
  Difference: −0.27
[1]; [3]
  Cholesterol-free: 0.8584
[1]; NCI-H292 cells, complete media
  Complete: 0.5894
[2]; [20]
  Cholesterol-free media + simvastatin (0.04 μM): 1.069
[2]; [21]
  Complete Media: 0.8484
[2]; [16]
  Difference: −0.22

## CC(C(=O)O)c1cccc(Oc2ccccc2)c1 (centres unmarked) [Fenoprofen (Calcium hydrate)]
[1]; [11]
  Difference: −0.23
[1]; [3]
  Cholesterol-free: 1.081
[1]; NCI-H292 cells, complete media
  Complete: 0.8539
[2]; [20]
  Cholesterol-free media + simvastatin (0.04 μM): 1.224
[2]; [21]
  Complete Media: 1.032
[2]; [16]
  Difference: −0.19

## COc1cc2nc(N3CCN(C(=O)C4CCCO4)CC3)nc(N)c2cc1OC (centres unmarked) [Terazosin (hydrochloride dihydrate)]
[1]; [11]
  Difference: −0.06
[1]; [12]
  Cholesterol-free: 0.8804
[1]; [13]
  Complete: 0.821
[2]; [5]
  Cholesterol-free media + simvastatin (0.04 μM): 1.029
[2]; [6]
  Complete Media: 0.9806
[2]; [7]
  Difference: −0.05

## NCCC(O)(P(=O)([O-])O)P(=O)([O-])O.O.O.O.O.O.[Na+].[Na+] [Pamidronate (disodium pentahydrate)]
[1]; [24]
  Difference: −0.12
[1]; [25]
  Cholesterol-free: 1.305
[1]; [23]
  Complete: 1.183
[2]; [22]
  Cholesterol-free media + simvastatin (0.04 μM): 1.169
[2]; [23]
  Complete Media: 1.009
[2]; [16]
  Difference: −0.16

## CN1CCCN=C1/C=C/c1cccc(O)c1.O=C(O)c1cc2ccccc2c(Cc2c(O)c(C(=O)O)cc3ccccc23)c1O [Oxantel (pamoate)]
[1]; [18]
  Difference: −0.51
[1]; [26]
  Cholesterol-free: 1.526
[1]; [19]
  Complete: 1.019
[2]; [22]
  Cholesterol-free media + simvastatin (0.04 μM): 0.9072
[2]; [23]
  Complete Media: 1.051
[2]; [10]
  Difference: 0.14

## CC(C)NC[C@H](O)COc1cccc2ccccc12.Cl [(S)-(−)-Propranolol (hydrochloride)]
[1]; [18]
  Difference: −0.61
[1]; [26]
  Cholesterol-free: 1.5
[1]; [19]
  Complete: 0.8879
[2]; [5]
  Cholesterol-free media + simvastatin (0.04 μM): 1.665
[2]; [6]
  Complete Media: 1.663
[2]; [7]
  Difference: 0.00

## CC(C)(CO)[C@@H](O)C(=O)NCCC(=O)[O-].CC(C)(CO)[C@@H](O)C(=O)NCCC(=O)[O-].[Ca+2] [D-Pantothenic acid (hemicalcium salt)]
[1]; [11]
  Difference: −0.04
[1]; [12]
  Cholesterol-free: 0.8788
[1]; [13]
  Complete: 0.8434
[2]; [14]
  Cholesterol-free media + simvastatin (0.04 μM): 1.159
[2]; [15]
  Complete Media: 0.786
[2]; [16]
  Difference: −0.37

## CS(=O)(=O)CCNCc1ccc(-c2ccc3ncnc(Nc4ccc(OCc5cccc(F)c5)c(Cl)c4)c3c2)o1 [Lapatinib]
[1]; [11]
  Difference: −0.07
[1]; [12]
  Cholesterol-free: 0.3435
[1]; [13]
  Complete: 0.2753
[2]; [8]
  Cholesterol-free media + simvastatin (0.04 μM): 0.4073
[2]; [9]
  Complete Media: 0.4535
[2]; [10]
  Difference: 0.05

## CC[C@H](C)C(=O)O[C@H]1C[C@@H](C)C=C2C=C[C@H](C)[C@H](CC[C@@H]3C[C@@H](O)CC(=O)O3)[C@H]21 [Lovastatin]
[1]; [24]
  Difference: −0.11
[1]; [25]
  Cholesterol-free: 0.7089
[1]; [23]
  Complete: 0.603
[2]; [22]
  Cholesterol-free media + simvastatin (0.04 μM): 0.5184
[2]; [23]
  Complete Media: 0.7992
[2]; [10]
  Difference: 0.28

## Bedaquiline (fumarate)
[1]; [3]
  Cholesterol-free: 1.587
[1]; NCI-H292 cells, complete media
  Complete: 1.119
[1]; [4]
  Difference: −0.47
[2]; [8]
  Cholesterol-free media + simvastatin (0.04 μM): 0.9095
[2]; [9]
  Complete Media: 0.9785
[2]; [10]
  Difference: 0.07

## O=c1[nH]ccc2c(S(=O)(=O)N3CCCNCC3)cccc12 [Hydroxyfasudil]
[1]
  Cholesterol-free: 0.944
  Complete: 1.011
  Difference: 0.07
[2]
  Cholesterol-free media + simvastatin (0.04 μM): 0.9404
  Complete Media: 0.8562
  Difference: −0.08

## O=C(O[C@H]1C[N+]2(CCCOc3ccccc3)CCC1CC2)C(O)(c1cccs1)c1cccs1.[Br-] [Aclidinium (Bromide)]
[1]
  Cholesterol-free: 1.253
  Complete: 0.9873
  Difference: −0.27
[2]
  Cholesterol-free media + simvastatin (0.04 μM): 0.8781
  Complete Media: 0.7357
  Difference: −0.14

## O=c1[nH]c2ccccc2n1C1CCN(CCCC(c2ccc(F)cc2)c2ccc(F)cc2)CC1 [Pimozide]
[1]; [3]
  Cholesterol-free: 1.1
[1]; NCI-H292 cells, complete media
  Complete: 0.6361
[1]; [4]
  Difference: −0.46
[2]; [22]
  Cholesterol-free media + simvastatin (0.04 μM): 0.8031
[2]; [23]
  Complete Media: 0.9681
[2]; [10]
  Difference: 0.16

## CC1(C)O[C@@H]2C[C@H]3[C@@H]4C[C@H](F)C5=CC(=O)C=C[C@]5(C)[C@@]4(F)[C@@H](O)C[C@]3(C)[C@]2(C(=O)CO)O1 [Fluocinolone (Acetonide)]
[1]; [11]
  Difference: 0.01
[1]; [12]
  Cholesterol-free: 0.5523
[1]; [13]
  Complete: 0.5617
[2]; [20]
  Cholesterol-free media + simvastatin (0.04 μM): 0.6444
[2]; [21]
  Complete Media: 0.4689
[2]; [16]
  Difference: −0.18

## CC(=O)OCC(=O)[C@@]1(O)CC[C@H]2[C@@H]3CCC4=CC(=O)C=C[C@]4(C)[C@@]3(Cl)[C@@H](Cl)C[C@@]21C [Dichlorisone acetate]
[1]; [12]
  Cholesterol-free: 0.8532
[1]; [13]
  Complete: 1.096
[1]; [17]
  Difference: 0.24
[2]; [5]
  Cholesterol-free media + simvastatin (0.04 μM): 0.7442
[2]; [6]
  Complete Media: 0.6906
[2]; [7]
  Difference: −0.05
